Data reported in patent publication US7078225B2, “Method for enzymatically producing an optically active cyanohydrin” (Nippon Shokubai Co., Ltd., priority 2000, dated 2006).

Tested on: (R)-hydroxynitrile lyase
Assay: Effect of reaction inhibitor in the aldehyde on enzymatic synthesis of (R)-2-chloromandelonitrile (conversion by HPLC after five hours)
Assay type: biochemical, almond (Prunus amygdalus)
Details: 1 M aldehyde, 1.5 M prussic acid, immobilized enzyme 600 units, t-butyl methyl ether saturated with citrate buffer pH 5.5, five hours
Procedure: 2-chlorobenzaldehyde containing undetectable 2-chlorobenzoic acid (reaction inhibitor) was dissolved in t-butyl methyl ether saturated with 0.15 M citrate buffer (pH 5.5) to prepare a 1 M solution of 2-chlorobenzaldehyde. To this solution, 2-chlorobenzoic acid was added in different amounts to prepare aldehyde solutions of varying 2-chlorobenzoic acid contents.
Immobilized (R)-hydroxynitrile lyase (600 units) was introduced into 5 mil of each solution, and prussic acid was then added to reach 1.5 M, followed by synthesis of (R)-2-chloromandelonitrile. Five hours after initiation of the reaction, an aliquot of the reaction mixture was sampled to measure the conversion ratio of aldehyde by HPLC.

Structure (SMILES): O=C(O)c1ccccc1Cl [2-chlorobenzoic acid]
- inhibition of the enzyme reaction (0.5 wt % 2-chlorobenzoic acid added to 2-chlorobenzaldehyde): about 30%
- inhibition of the enzyme reaction (1.1 wt % 2-chlorobenzoic acid added to 2-chlorobenzaldehyde): about 50%
